In ChEMBL document CHEMBL1201862, “PubChem BioAssay data set” (2004):
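Values below derive from 48-hour exposures of cells grown in 96-well plates, with endpoints linearly interpolated between the two concentrations bracketing the appropriate inhibition level. GI50 = concentration required for 50% inhibition of growth.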 Activity calls are given as the source filed them. Rule as the data show it: active = GI50 up to about 1.1 µM and inactive = higher.

What was measured:
Assay in all cases: NCI tumour cell line growth inhibition, 48 h
NCI-H522 = test system: NCI-H522
CCRF-CEM = test system: CCRF-CEM
UACC-62 = test system: UACC-62
K562 = test system: K562
U-251 = test system: U-251
SNB-75 = test system: SNB-75
ACHN = test system: ACHN
OVCAR-5 = test system: OVCAR-5
A498 = test system: A498
M14 = test system: M14
OVCAR-8 = test system: OVCAR-8
NCI-H460 = test system: NCI-H460
LOX IMVI = test system: LOX IMVI
HCT-15 = test system: HCT-15
786-0 = test system: 786-0
SK-MEL-2 = test system: SK-MEL-2
RXF 393 = test system: RXF 393
HCC 2998 = test system: HCC 2998
SK-MEL-28 = test system: SK-MEL-28
HOP-92 = test system: HOP-92

Structure (SMILES)	GI50 (NCI-H522)	GI50 (CCRF-CEM)	GI50 (UACC-62)	GI50 (K562)	GI50 (U-251)	GI50 (SNB-75)	GI50 (ACHN)	GI50 (OVCAR-5)	GI50 (A498)	GI50 (M14)	GI50 (OVCAR-8)	GI50 (NCI-H460)	GI50 (LOX IMVI)	GI50 (HCT-15) [µM]	GI50 (786-0)	GI50 (SK-MEL-2)	GI50 (RXF 393)	GI50 (HCC 2998)	GI50 (SK-MEL-28)	GI50 (HOP-92)
CCOC(=O)CSc1cc[nH]c(=O)n1	> 100 µM (inactive)	> 100 µM (inactive)	> 100 µM (inactive)	> 100 µM (inactive)	> 100 µM (inactive)	> 100 µM (inactive)	> 100 µM (inactive)	> 100 µM (inactive)	> 100 µM (inactive)	> 100 µM (inactive)	> 100 µM (inactive)	> 100 µM (inactive)	> 100 µM (inactive)	> 100	> 100 µM (inactive)	> 100 µM (inactive)	31.6 µM (inactive)			
CCOC(O)(NC(=O)C(C(F)(F)F)C(F)(F)F)C(F)(F)F (stereo unspecified)		> 100 µM (inactive)		> 100 µM (inactive)	> 100 µM (inactive)	> 100 µM (inactive)	> 100 µM (inactive)	> 100 µM (inactive)	> 100 µM (inactive)	> 100 µM (inactive)	> 100 µM (inactive)		> 100 µM (inactive)	> 100	> 100 µM (inactive)	> 100 µM (inactive)	> 100 µM (inactive)	> 100 µM (inactive)	> 100 µM (inactive)	
CCCCCC[C@H]1C(=O)O[C@H](C)[C@H](NC(=O)c2cccc(NC=O)c2OC)C(=O)O[C@@H](C)[C@@H]1OC(=O)C(C)CC.CCCCCC[C@H]1C(=O)O[C@H](C)[C@H](NC(=O)c2cccc(NC=O)c2OC)C(=O)O[C@@H](C)[C@@H]1OC(=O)CC(C)C (stereo partly specified)	12.2 µM (inactive)	6.08 µM (inactive)	8.49 µM (inactive)	7.85 µM (inactive)	11.7 µM (inactive)		5.83 µM (inactive)	> 100 µM (inactive)	12.4 µM (inactive)	39.7 µM (inactive)	11.6 µM (inactive)	4.83 µM (inactive)	25.9 µM (inactive)	14.7	18.6 µM (inactive)	25.6 µM (inactive)	> 100 µM (inactive)	89.7 µM (inactive)	> 100 µM (inactive)	17.5 µM (inactive)
COc1ccc(/C=N/C23CC4CC(CC(C4)C2)C3)cc1	> 100 µM (inactive)	> 100 µM (inactive)	> 100 µM (inactive)	> 100 µM (inactive)	> 100 µM (inactive)	> 100 µM (inactive)	> 100 µM (inactive)	> 100 µM (inactive)	> 100 µM (inactive)	> 100 µM (inactive)	> 100 µM (inactive)	> 100 µM (inactive)	> 100 µM (inactive)	> 100	> 100 µM (inactive)	> 100 µM (inactive)	> 100 µM (inactive)	> 100 µM (inactive)	> 100 µM (inactive)	
CCOC(=O)C1=C(C)N(NC(=O)c2ccccc2)C2(O)CCCC12C(=O)OCC (stereo unspecified)	> 100 µM (inactive)		> 100 µM (inactive)	> 100 µM (inactive)	> 100 µM (inactive)	40.1 µM (inactive)	> 100 µM (inactive)	> 100 µM (inactive)	> 100 µM (inactive)	> 100 µM (inactive)	> 100 µM (inactive)	> 100 µM (inactive)	> 100 µM (inactive)	> 100	> 100 µM (inactive)	> 100 µM (inactive)	> 100 µM (inactive)	> 100 µM (inactive)	> 100 µM (inactive)	
CCOC(=O)c1cc(C(=O)c2ccccc2)n2nc(-c3ccc(Cl)cc3)ccc12	18.5 µM (inactive)	> 100 µM (inactive)	17.3 µM (inactive)	> 100 µM (inactive)	23.1 µM (inactive)		15 µM (inactive)	23.3 µM (inactive)	16.8 µM (inactive)	31.8 µM (inactive)		22.1 µM (inactive)	56.4 µM (inactive)	33.9	15.2 µM (inactive)	17.4 µM (inactive)	15.2 µM (inactive)	23.2 µM (inactive)	28.4 µM (inactive)	24.8 µM (inactive)
NNC(=O)c1ccc(OCc2nc3ccccc3[nH]2)cc1	30 µM (inactive)		> 100 µM (inactive)	39.5 µM (inactive)	> 100 µM (inactive)		> 100 µM (inactive)	> 100 µM (inactive)	> 100 µM (inactive)	53.1 µM (inactive)	> 100 µM (inactive)	31.8 µM (inactive)	> 100 µM (inactive)	> 100	> 100 µM (inactive)	> 100 µM (inactive)	34.8 µM (inactive)		> 100 µM (inactive)	> 100 µM (inactive)
CS(=O)(=O)NNS(=O)(=O)c1cccc([N+](=O)[O-])c1	> 100 µM (inactive)	> 100 µM (inactive)	> 100 µM (inactive)	> 100 µM (inactive)	> 100 µM (inactive)	> 100 µM (inactive)	> 100 µM (inactive)		> 100 µM (inactive)	> 100 µM (inactive)	> 100 µM (inactive)	> 100 µM (inactive)	> 100 µM (inactive)	> 100	> 100 µM (inactive)	> 100 µM (inactive)	> 100 µM (inactive)	> 100 µM (inactive)		
